Drawing on publication doi:10.1101/2024.07.23.604814v1 (biorxiv, 2024), this text covers IC50 for nine compounds.

The experiment addresses T1, mouse sEH (Mus musculus, UniProt P34914).
T1 sequence (P34914 1-554): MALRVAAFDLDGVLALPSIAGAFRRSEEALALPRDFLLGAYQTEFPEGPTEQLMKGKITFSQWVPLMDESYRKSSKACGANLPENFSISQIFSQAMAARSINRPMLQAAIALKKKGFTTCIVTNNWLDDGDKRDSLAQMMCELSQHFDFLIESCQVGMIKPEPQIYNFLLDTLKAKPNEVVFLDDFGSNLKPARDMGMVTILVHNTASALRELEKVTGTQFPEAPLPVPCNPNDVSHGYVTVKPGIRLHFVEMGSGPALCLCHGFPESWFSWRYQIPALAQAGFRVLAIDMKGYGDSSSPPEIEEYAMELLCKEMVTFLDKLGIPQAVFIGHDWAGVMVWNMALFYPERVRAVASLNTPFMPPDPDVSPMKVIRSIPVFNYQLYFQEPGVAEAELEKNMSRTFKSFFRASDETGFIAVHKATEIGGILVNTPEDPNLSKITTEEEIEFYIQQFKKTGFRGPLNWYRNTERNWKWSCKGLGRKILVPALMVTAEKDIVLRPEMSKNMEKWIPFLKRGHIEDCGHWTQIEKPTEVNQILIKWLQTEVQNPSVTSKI
As to the kind of experiment: fluorogenic substrate hydrolase assay. The following applies: recombinant purified enzyme, average of triplicates. The experiment is classed as biochemical.

For `O=C1CCC(N2C(=O)c3cccc(NCCOCCOCCC(=O)N4CCC(NC(=O)Nc5ccc(OC(F)(F)F)cc5)CC4)c3C2=O)C(=O)N1` (stereo not drawn) [compound 10], the IC50 amounted to 3 nM.

Regarding `O=C1CCC(N2Cc3c(NCCOCCOCCOCCNC(=O)c4ccc(O[C@H]5CC[C@H](NC(=O)Nc6ccc(OC(F)(F)F)cc6)CC5)cc4)cccc3C2=O)C(=O)N1` (stereo partly drawn) [compound 1], the IC50 came out at 1.6 nM. As to `O=C(COc1ccc(N2CCC(=O)NC2=O)cc1)NCCOCCOCCOCCOCCNC(=O)c1ccc(O[C@H]2CC[C@H](NC(=O)Nc3ccc(OC(F)(F)F)cc3)CC2)cc1` [compound 4], the IC50 is 6 nM. In the case of `Cc1ncsc1-c1ccc(CNC(=O)[C@@H]2C[C@@H](O)CN2C(=O)[C@@H](NC(=O)CCCCCCC(=O)N2CCC(NC(=O)Nc3ccc(OC(F)(F)F)cc3)CC2)C(C)(C)C)cc1` [compound 12] it was 3.1 nM.

Turning to `O=C(COc1ccc(C2CCC(=O)NC2=O)cc1)NCCOCCOCCOCCOCCNC(=O)c1ccc(O[C@H]2CC[C@H](NC(=O)Nc3ccc(OC(F)(F)F)cc3)CC2)cc1` (stereo partly drawn) [compound 3], the IC50 is 4.7 nM.

For the compound `O=C(COc1cccc2c1C(=O)N(C1CCC(=O)NC1=O)C2=O)NCCOCCOCCOCCOCCNC(=O)c1ccc(O[C@H]2CC[C@H](NC(=O)Nc3ccc(OC(F)(F)F)cc3)CC2)cc1` (stereo partly drawn) [1a, compound 1a], the IC50 is 4 nM. As to `O=C1CCC(N2C(=O)c3ccc(NCCOCCOCCOCCOCCNC(=O)c4ccc(O[C@H]5CC[C@H](NC(=O)Nc6ccc(OC(F)(F)F)cc6)CC5)cc4)cc3C2=O)C(=O)N1` (stereo partly drawn) [compound 2], the IC50 was determined as 0.64 nM. For `O=C1CCC(N2C(=O)c3cccc(NCCCCCC(=O)N4CCC(NC(=O)Nc5ccc(OC(F)(F)F)cc5)CC4)c3C2=O)C(=O)N1` (stereo not drawn) [compound 9] the value was 1.4 nM; for `Cc1ccc(C(=O)NCCOCCOCCOCCOCCNC(=O)c2ccc(O[C@H]3CC[C@H](NC(=O)Nc4ccc(OC(F)(F)F)cc4)CC3)cc2)cc1N1CCC(=O)NC1=O` [compound 5], 9.3 nM.

The term IC50 denotes the point on the concentration scale where inhibition reaches its midpoint.
